Assay results taken from paper PMC9112550, “Optimization of the antimicrobial peptide Bac7 by deep mutational scanning” (BMC Biology, 2022).
Where no end group is shown, it is not given here.

System: E. coli TOP10
Test: Membrane damage assay in MHB I (GFP loss, PI uptake)
Assay type: cell-based
Conditions: not cation-adjusted, n = 3
Experimental: For membrane damage assays, the bacterial strain […] [pSEVA271-sfGFP] and the peptide dilutions were prepared as described for the MIC measurements but by scaling all volumes 5-fold and using 96-well plates (polypropylene, U-bottom, 650201, Greiner, Kremsmünster, AT) with a final assay volume of 200 μl. The bacterial strain suspension was furthermore supplemented with a final concentration of 1 μg ml^−1 propidium iodide (PI, from a 1 mg ml^−1 stock in water) just before pipetting the assay. After 1 h incubation at room temperature, the cell membrane integrity was assessed by flow cytometry using a Fortessa Analyzer (BD Biosciences) and appropriate filters for GFP and PI (488-nm laser with 530/30-nm bandpass filter and 579-nm laser with 610/20-nm bandpass filter). […]
Fig. S8 | Membrane damage assay. Membrane damage assays measuring PI uptake of the cells (% cells are given that gained PI fluorescence) and GFP loss (% of the cells are given that lost sfGFP fluorescence) when incubating E. coli TOP10 cells with various peptide concentrations in MHB I (n=3; error bars = 1SD).Fig. S7 | Interactions observed per amino acid residue. For each amino acid residue, the occurrences of interactions at all positions were counted. No antagonistic effect was detected for glutamate and valine residues. No interaction was detected for serine. […]

RRIRIRPPRLPRPRPRPYFMPRP [Bac7PS]
membrane damage, compared with MHB II: more pronounced
